# In publication PMC11546786, “Designing Analogs of SAAP-148 with Enhanced Antimicrobial and Anti-LPS Activities” (International Journal of Molecular Sciences, 2024):
# Ends that are not written are not given here.
# What was measured:
# [1] = system: Klebsiella pneumonia (1.1736); format: cell-based, Klebsiella pneumoniae
# Text: The LL-37, SAAP-148 and its analogues peptides were synthesized according to the standard Fmoc procedure. The Fmoc-protected resin and monomers are first treated with a basic solvent (piperidine) to remove the amino protecting groups. The carboxyl group of the next amino acid is activated by an activator. The activated monomer reacts with the free amino group to form a peptide bond. These two steps are repeated in a cycle until the synthesis is complete. After synthesis, the peptide is eluted from the column and purified by reverse-phase semipreparative high-performance liquid chromatography as detailed in Table 1. The peptides were dissolved in PBS to create a 1000 μmol/L stock solution for subsequent use. The purity of the synthetic peptide exceeded 95%. Blood samples from healthy donors were obtained from the Fifth Medical Center of Chinese PLA General Hospital (Beijing, China). Human normal lung epithelial cells (BEAS-2B) and mouse mononuclear macrophages cells (RAW 264.7) were sourced from Beyotime Biotechnology (Beijing, China), along with the Enhanced Cell Counting Kit-8 (CCK-8) and nitric oxide detection kit. RPMI-1640 and DMEM were procured from Merck (Darmstadt, Germany), while FBS was obtained from ExCell Bio (Shanghai, China). LPS-B5 (from E. coli 055:B5) was procured from Invivogen (Toulouse, France). Five bacterial strains, including Escherichia coli (1.8732), Pseudomonas aeruginosa (1.2421), Klebsiella pneumonia (1.1736) as Gram-negative bacteria, and Staphylococcus aureus (1.8721) and Staphylococcus epidermidis (1.4260) as Gram-positive bacteria, were procured from the China General Microbiological Culture Collection Centre (CGMCC) (Beijing, China).
# The antibacterial activities of the peptides against […] were evaluated using a modified version of the Clinical Laboratory and Standards Institute (CLSI) broth microdilution method, as previously described. Briefly, the bacteria were cultured in liquid LB medium (comprising 10 g/L tryptone, 5 g/L yeast extract, and 10 g/L NaCl) at 37 °C until reaching mid-log phase. Subsequently, the bacterial concentration was adjusted to 1 × 10^6 colony-forming units (CFU)/mL. The peptides were then diluted serially with phosphate-buffered saline (PBS), followed by the addition of 50 μL of the diluted peptides to 50 μL of the bacterial suspension in a 96-well plate (Corning Inc., Lowell, MA, USA). After incubating at 37 °C for 18 to 20 h, the absorbance of each well was measured using a multi-well microplate reader (SpectraMax M5; Molecular Devices, Sunnyvale, CA, USA) at 600 nm.
# [2] = system: Gram-negative bacteria (E. coli, P. aeruginosa, K. pneumoniae); experiment: Geometric mean of MICs against Gram-negative bacteria; format: cell-based; design: unit not given here
# How it was run: (§1)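 Modified CLSI broth microdilution: mid-log bacteria from LB culture were adjusted to 1 × 10^6 CFU/mL and mixed 1:1 with peptide serially diluted in PBS. After 18 to 20 h at 37 °C, growth was read as absorbance at 600 nm.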
# [3] = system: five bacterial strains; experiment: MICs against all five bacterial strains (geometric mean, range); format: cell-based; design: unit not given here; settings: geometric mean of MICs against all five bacterial strains
# How it was run: as §1
# [4] = Reversed-phase HPLC retention time as measure of peptide hydrophobicity; format: physicochemical; settings: retention time by reverse-phase HPLC, reflects hydrophobicity difference between analogues
# [5] = system: E. coli; experiment: Membrane damage, PI staining and flow cytometry; format: cell-based, Escherichia coli; settings: 6.25 μM peptide, 30 min
# Method: Propidium iodide (PI) was utilized as a marker for assessing the structural integrity of cell membranes and the occurrence of cell death. The impact of peptides on BEAS-2B cells, E. coli, and S. aureus was investigated by treating the cells with peptides followed by PI staining and flow cytometry (FACS) analysis to evaluate peptide-induced membrane damage. Table 5 presents the results of PI staining in BEAS-2B cells (1 × 10^6) following treatment with peptides at a concentration of 6.25 μM. […] FACS analysis at a peptide concentration of 6.25 μM was employed to determine the membrane damage caused by peptides in E. coli and S. aureus cells (Table 5).
# Peptide-induced membrane damage was evaluated by quantifying the influx of propidium iodide (PI). BEAS-2B cells (1 × 10^6 cells in 50 μL) were exposed to a final concentration of 6.25 μM peptide and incubated at 37 °C for 30 min, followed by PBS washing and re-suspension in PI solution (dissolved in PBS) at a final concentration of 2 μg/mL. Bacteria were cultured to mid-log phase at 37 °C, then diluted to an OD600 of 0.5 in phosphate-buffered saline (PBS). […] The bacteria were harvested and re-suspended in PI solution, with fluorescence signal analysis conducted using flow cytometry (Cytomics FC 500, Beckman Coulter, Indianapolis, IN, USA).
# [6] = system: Gram-positive bacteria (S. aureus, S. epidermidis); experiment: Geometric mean of MICs against Gram-positive bacteria; format: cell-based; design: unit not given here
# How it was run: as §1
# [7] = system: human erythrocytes; experiment: Haemolytic activity; format: cell-based
# Method: The haemolytic activity of the peptides was evaluated using a standard procedure with minor adjustments. Fresh human erythrocytes were washed thrice and subsequently resuspended at 1.25% haematocrit in PBS. Forty microlitres PBS-diluted peptide solution was added to a 96-well plate (Corning Inc., Lowell, MA, USA), and 160 μL of erythrocytes was added. After incubation at 37 °C for 30 min, the samples were centrifuged, and the absorbance of the supernatant was measured at 450 nm using a multi-well microplate reader (SpectraMax M5; Molecular Devices, Sunnyvale, CA, USA) and compared with the 100% haemolysis caused by 0.1% Triton X-100. The percentage of haemolysis was calculated according to the equation: Haemolysis%=Asample−Ablank/Atriton−Ablank×100
substance,measurement,setting,value
LKRVWKRVFKLKKRYWRQLKKPVR-NH2 [SAAP-7],MIC K. pneumoniae,[1],100.00 µM
same,GM to G−,[2],9.93
same,MIC (GM),[3],16.49
same,Rt,[4],12.897 min
same,"percentage of PI-positive cells, E. coli",[5],34.9%
same,GM to G+,[6],35.36
same,fold increase of MHC over that of SAAP-148,[7],133.33 fold
